Assay results reported in ChEMBL document CHEMBL6127146, “Exploring the Polypharmacological Potential of PCI-27483: A Selective Inhibitor of Carbonic Anhydrases IX and XII” (ACS Med Chem Lett, 2024).
pKi: −log10 of the molar value.

Molecular target: Carbonic anhydrase 3 (Homo sapiens, UniProt P07451)
Sequence (P07451 whole entry): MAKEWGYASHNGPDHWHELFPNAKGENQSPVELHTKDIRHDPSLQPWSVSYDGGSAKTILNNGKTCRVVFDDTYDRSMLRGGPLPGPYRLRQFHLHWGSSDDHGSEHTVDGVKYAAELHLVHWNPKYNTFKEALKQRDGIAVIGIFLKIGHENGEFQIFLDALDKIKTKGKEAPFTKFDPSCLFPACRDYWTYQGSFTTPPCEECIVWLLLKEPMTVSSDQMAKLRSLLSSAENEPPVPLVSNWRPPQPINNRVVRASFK
Description: Inhibition of human CA3 preincubated for 15 mins by phenol red dye based stopped flow CO2 hydration assay

pKi: < 4.00
SMILES: N=C(N)c1ccc2nc(-c3cc(CC(=O)N[C@@H](CC(=O)O)C(=O)O)cc(-c4cc(S(N)(=O)=O)ccc4O)c3O)[nH]c2c1 [PCI-27483]
